# Source: patent US7547519B2, “Methods of diagnosing multidrug resistant tuberculosis” (The United States of America as represented by the …, priority 2000, dated 2009)
# How the values were obtained:
# MTb patient isolates = assay type: cell-based, Mycobacterium tuberculosis
# MTb H37Rv [1] = tested on: MTb H37Rv
# MTb H37Rv [2] = test: microbe, parasite or virus in culture; details: Mycobacterium tuberculosis
Compound,isolates cross-resistant (MTb patient isolates),"susceptibility of isolates without mutations in EtaA, EtaR or promoter regions (MTb patient isolates)",growth of transformants (MTb H37Rv [1]),MIC (MTb H37Rv [2]) [µg/mL]
"CCc1cc(C(N)=S)ccn1 [ETA, ethionamide]",Eleven of fourteen,fully sensitive,grew as a lawn at 2.5 and 5 μg/ml ETA,2.5 to 5
CC(C)CCOc1ccc(NC(=S)Nc2ccc(OCCC(C)C)cc2)cc1 [thiocarlide],thirteen out of fourteen,–,–,–
